Test results: patent publication US20220175793A1, “THE USE OF AN MGLUR5 ANTAGONIST FOR TREATING OPIOID ANALGESIC TOLERANCE” (NOVARTIS AG, priority 2019, published 2022)

Test system: morphine tolerant mice
Assay: Opiate tolerance test (hot plate) in the mouse
Type: in vivo
Details: for foot-licking latency, change as compared with animals receiving morphine from Day 1 to Day 6: morphine 32 mg/kg i.p. twice daily Day 1 to Day 6, hot plate 54° C.
Experimental: The method, which detects tolerance to analgesic activity, follows that described by Fernandes et al (Naunyn-Schmiedeberg's Arch. Pharmacol., 297, 53-60, 1977).
Mice were placed onto a hot metal plate maintained at 54° C. surrounded by a Plexiglas cylinder (height: 13 cm; diameter: 19 cm) (Bioseb: model PE34). The latency to the first foot-lick was measured (maximum: 30 seconds). Morphine (32 mg/kg i.p.) or vehicle were administered twice daily for 6 days (at about 9:00 and 15:00), and then administered with morphine 8 mg/kg i.p. (or saline) 30 minutes before the test on Day 7 to assess morphine tolerance.
The test substances were each evaluated at 3 doses (1, 3 and 10 mg/kg for Compound (I) and 0.3, 1 and 3 mg/kg for Compound (II), administered in morphine tolerant mice p.o. acutely 60 minutes before the test on Day 7. The experiment included appropriate control groups to assess the potential effects of the test substances on morphine tolerance. Compound (III) was evaluated at 1 dose (10 mg/kg), administered under the same experimental conditions and was used as comparison substance.
10 mice were studied per group. The test was performed blind. Data were analysed by comparing treated groups with appropriate controls using unpaired Student's t tests.

[1] = 1 mg/kg p.o. acutely 60 minutes before the test on Day 7
[2] = 3 mg/kg p.o. acutely 60 minutes before the test on Day 7
[3] = 10 mg/kg p.o. acutely 60 minutes before the test on Day 7

SMILES	expression of morphine tolerance (conclusion) (1 mg/kg p.o. acutely)	foot-licking latency, change as compared with animals receiving morphine from Day 1 to Day 6 [1]	foot-licking latency, change as compared with animals receiving morphine from Day 1 to Day 6 [2]	foot-licking latency, change as compared with animals receiving morphine from Day 1 to Day 6 [3]	foot-licking latency, change as compared with animals receiving morphine from Day 1 to Day 6 (0.3 mg/kg p.o. acutely 60 minutes before the test on Day 7)	expression of morphine tolerance (conclusion) (3 mg/kg p.o. acutely)	expression of morphine tolerance (conclusion) (10 mg/kg p.o. acutely)
COC(=O)N1CC[C@@H]2[C@H]1CCC[C@@]2(O)C#Cc1cccc(C)c1 [Compound (I), (−)-(3aR,4S,7aR)-4-Hydroxy-4-m-tolylethynyl-octahydro-indole-1-carboxylic acid methyl ester]	significantly decrease the expression of morphine tolerance	+44%	no significant effects	no significant effects			
COCc1cn(C2=NCC(=O)N3CCc4c(ccc(F)c4C4CC4)C3=C2)cn1 [Compound (II), 9-cyclopropyl-10-fluoro-2-(4-(methoxymethyl)-1H-imidazol-1-yl)-7,8-dihydro-[1,4]diazepino[7,1-a]isoquinolin-5(4H)-one]		+37%	+38%		no effects	significantly decrease the expression of morphine tolerance	
Cc1cccc(C#Cc2ccccc2)n1 [Compound (III), 2-methyl-6-(phenylethynyl)pyridine, reference compound]				+32%			significantly decrease the expression of morphine tolerance
